≈ marks a conversion by molar mass, not a printed value. Like-named read-outs stand apart in the source and are kept apart here.
Experiments:
[1] = test system: Bacillus anthracis (Sterne, ovine and pathogenic forms), Enterococcus faecalis and Bacillus cereus; conditions: Gram-positive bacteria; cited from earlier work
P. aeruginosa CQ4924 = assay: Broth microdilution MIC, glycosides with or without polymyxins; format: cell-based, Pseudomonas aeruginosa; conditions: for MIC: Pseudomonas aeruginosa, CQ4924
K. pneumoniae CQ4921 = assay: Broth microdilution MIC/MBC, glycosides with or without polymyxins; format: cell-based, Klebsiella pneumoniae; conditions: for MIC: Klebsiella pneumoniae, CQ4921
K. pneumoniae CQ1942 = assay: Broth microdilution MIC, glycosides with or without polymyxins; format: cell-based, Klebsiella pneumoniae; conditions: for MIC: Klebsiella pneumoniae, CQ1942
K. pneumoniae CQ1947 = assay: as above; format: cell-based, Klebsiella pneumoniae; conditions: for MIC: Klebsiella pneumoniae, CQ1947
[2] = alone, read-out: MICA (MIC of each compound individually)
[3] = combination with the lowest FICI
[4] = compound + colistin, lowest FICI

## CCCCCCCCCCCCO[C@H]1O[C@H](C)C[C@H](O)[C@H]1O [Compound 1, dodecyl 4,6-dideoxy-α/β-D-xylo-hexopyranoside]
[1]
  MIC: 12.6 µM (≈ 3.99 µg/mL)
P. aeruginosa CQ4924; Cpd conc. 0.4 μg/mL, strain H
  MIC of colistin in combination with the compound: > 0.5 µg/mL
P. aeruginosa CQ4924; Cpd conc. 0.8 μg/mL, strain H
  MIC of colistin in combination with the compound: > 0.5 µg/mL
P. aeruginosa CQ4924; Cpd conc. 3.125 μg/mL, strain H
  MIC of colistin in combination with the compound: > 0.5 µg/mL
P. aeruginosa CQ4924; Cpd conc. 6.25 μg/mL, strain H
  MIC of colistin in combination with the compound: > 0.5 µg/mL
P. aeruginosa CQ4924; Cpd conc. 12.5 μg/mL, strain H
  MIC of colistin in combination with the compound: > 0.5 µg/mL
P. aeruginosa CQ4924; Cpd conc. […], strain H
  MIC of colistin in combination with the compound: > 0.5 µg/mL
P. aeruginosa CQ4924; PMB 0.25 μg/mL, strain H
  MIC of compound in combination with PMB: > 100 µg/mL
P. aeruginosa CQ4924; PMB 0.5 μg/mL, strain H
  MIC of compound in combination with PMB: > 100 µg/mL
P. aeruginosa CQ4924; agent alone, no adjuvant (polymyxin conc. 0), strain H, read-out: MIC
  MIC: > 100 µg/mL
P. aeruginosa CQ4924; [2]
  MIC: > 100 µg/mL
P. aeruginosa CQ4924; colistin 0.06 μg/mL, strain H
  MIC of compound in combination with colistin: > 100 µg/mL
P. aeruginosa CQ4924; colistin 0.125 μg/mL, strain H
  MIC of compound in combination with colistin: > 100 µg/mL
P. aeruginosa CQ4924; colistin 0.25 μg/mL, strain H
  MIC of compound in combination with colistin: > 100 µg/mL
K. pneumoniae CQ4921; Cpd conc. 0.4 μg/mL, strain C
  MIC of colistin in combination with the compound: > 0.5 µg/mL
K. pneumoniae CQ4921; Cpd conc. 0.8 μg/mL, strain C
  MIC of colistin in combination with the compound: > 0.5 µg/mL
K. pneumoniae CQ4921; Cpd conc. 3.125 μg/mL, strain C
  MIC of colistin in combination with the compound: 0.25 µg/mL
K. pneumoniae CQ4921; Cpd conc. 6.25 μg/mL, strain C
  MIC of colistin in combination with the compound: 0.25 µg/mL
K. pneumoniae CQ4921; Cpd conc. 12.5 μg/mL, strain C
  MIC of colistin in combination with the compound: 0.25 µg/mL
K. pneumoniae CQ4921; Cpd conc. […], strain C
  MIC of colistin in combination with the compound: 0.5 µg/mL
K. pneumoniae CQ4921; agent alone, no adjuvant (polymyxin conc. 0), strain C, read-out: MIC
  MIC: > 100 µg/mL
K. pneumoniae CQ4921; [2]
  MIC: > 100 µg/mL
K. pneumoniae CQ4921; PMB 0.25 μg/mL, strain C
  MIC of compound in combination with PMB: > 100 µg/mL
K. pneumoniae CQ4921; PMB 0.5 μg/mL, strain C
  MIC of compound in combination with PMB: 1.6 µg/mL
K. pneumoniae CQ4921; colistin 0.06 μg/mL, strain C
  MIC of compound in combination with colistin: > 100 µg/mL
K. pneumoniae CQ4921; colistin 0.125 μg/mL, strain C
  MIC of compound in combination with colistin: > 100 µg/mL
K. pneumoniae CQ4921; colistin 0.25 μg/mL, strain C
  MIC of compound in combination with colistin: 3.1 µg/mL
K. pneumoniae CQ4921; colistin 0.5 μg/mL, strain C
  MIC of compound in combination with colistin: 1.6 µg/mL
K. pneumoniae CQ4921; [3]
  MICA(A + B) (MIC of compound in combination with colistin): 3.125 µg/mL
  MICB(A + B) (MIC of colistin in combination with compound): 0.25 µg/mL
K. pneumoniae CQ4921; compound + colistin
  Interpretation (of FICI): Additive (from 0.5 to 1.0 were additive)
K. pneumoniae CQ4921; [4]
  FICI: 0.52
K. pneumoniae CQ1942; Cpd conc. 0.4 μg/mL, strain E
  MIC of colistin in combination with the compound: > 0.5 µg/mL
K. pneumoniae CQ1942; Cpd conc. 0.8 μg/mL, strain E
  MIC of colistin in combination with the compound: 0.5 µg/mL
K. pneumoniae CQ1942; Cpd conc. 3.125 μg/mL, strain E
  MIC of colistin in combination with the compound: 0.25 µg/mL
K. pneumoniae CQ1942; Cpd conc. 6.25 μg/mL, strain E
  MIC of colistin in combination with the compound: 0.25 µg/mL
K. pneumoniae CQ1942; Cpd conc. 12.5 μg/mL, strain E
  MIC of colistin in combination with the compound: 0.25 µg/mL
K. pneumoniae CQ1942; Cpd conc. […], strain E
  MIC of colistin in combination with the compound: 0.5 µg/mL
K. pneumoniae CQ1942; agent alone, no adjuvant (polymyxin conc. 0), strain E, read-out: MIC
  MIC: > 100 µg/mL
K. pneumoniae CQ1942; [2]
  MIC: > 100 µg/mL
K. pneumoniae CQ1942; PMB 0.25 μg/mL, strain E
  MIC of compound in combination with PMB: > 100 µg/mL
K. pneumoniae CQ1942; PMB 0.5 μg/mL, strain E
  MIC of compound in combination with PMB: 1.6 µg/mL
K. pneumoniae CQ1942; colistin 0.06 μg/mL, strain E
  MIC of compound in combination with colistin: > 100 µg/mL
K. pneumoniae CQ1942; colistin 0.125 μg/mL, strain E
  MIC of compound in combination with colistin: > 100 µg/mL
K. pneumoniae CQ1942; colistin 0.25 μg/mL, strain E
  MIC of compound in combination with colistin: 3.1 µg/mL
K. pneumoniae CQ1942; colistin 0.5 μg/mL, strain E
  MIC of compound in combination with colistin: 0.8 µg/mL
K. pneumoniae CQ1942; [3]
  MICA(A + B) (MIC of compound in combination with colistin): 3.125 µg/mL
  MICB(A + B) (MIC of colistin in combination with compound): 0.25 µg/mL
K. pneumoniae CQ1942; compound + colistin
  Interpretation (of FICI): Additive (from 0.5 to 1.0 were additive)
K. pneumoniae CQ1942; [4]
  FICI: 0.52
K. pneumoniae CQ1947; Cpd conc. 0.4 μg/mL, strain F
  MIC of colistin in combination with the compound: > 0.5 µg/mL
K. pneumoniae CQ1947; Cpd conc. 0.8 μg/mL, strain F
  MIC of colistin in combination with the compound: > 0.5 µg/mL
K. pneumoniae CQ1947; Cpd conc. 3.125 μg/mL, strain F
  MIC of colistin in combination with the compound: 0.5 µg/mL
K. pneumoniae CQ1947; Cpd conc. 6.25 μg/mL, strain F
  MIC of colistin in combination with the compound: 0.5 µg/mL
K. pneumoniae CQ1947; Cpd conc. 12.5 μg/mL, strain F
  MIC of colistin in combination with the compound: 0.5 µg/mL
K. pneumoniae CQ1947; Cpd conc. […], strain F
  MIC of colistin in combination with the compound: > 0.5 µg/mL
K. pneumoniae CQ1947; agent alone, no adjuvant (polymyxin conc. 0), strain F, read-out: MIC
  MIC: > 100 µg/mL
K. pneumoniae CQ1947; [2]
  MIC: > 100 µg/mL
K. pneumoniae CQ1947; PMB 0.25 μg/mL, strain F
  MIC of compound in combination with PMB: > 100 µg/mL
K. pneumoniae CQ1947; PMB 0.5 μg/mL, strain F
  MIC of compound in combination with PMB: 3.1 µg/mL
K. pneumoniae CQ1947; colistin 0.06 μg/mL, strain F
  MIC of compound in combination with colistin: > 100 µg/mL
K. pneumoniae CQ1947; colistin 0.125 μg/mL, strain F
  MIC of compound in combination with colistin: > 100 µg/mL
K. pneumoniae CQ1947; colistin 0.25 μg/mL, strain F
  MIC of compound in combination with colistin: > 100 µg/mL
K. pneumoniae CQ1947; colistin 0.5 μg/mL, strain F
  MIC of compound in combination with colistin: 3.1 µg/mL
K. pneumoniae CQ1947; [3]
  MICA(A + B) (MIC of compound in combination with colistin): 3.125 µg/mL
  MICB(A + B) (MIC of colistin in combination with compound): 0.5 µg/mL
K. pneumoniae CQ1947; compound + colistin
  Interpretation (of FICI): Indifferent (1.0 to 4.0 were indifferent)

— paper PMC10817917, “Alkyl deoxyglycoside-polymyxin combinations against critical priority carbapenem-resistant gram-negative bacteria” (Scientific Reports, 2024)
